Experiments:
[1] = molecular target: T1, His-tagged tau / biotinylated heparin interaction (Homo sapiens, UniProt P10636); test: Bead-based ALPHA assay screening for inhibitors of tau-heparin interaction; type: binding
T1 construct: recombinant full-length tau (2N4R, as 1-441); made in house; host or cells: E. coli BL21-DE3
Source text: In some embodiments, the detecting portion 161 is configured to measure a fluorescent emission 164 when the at least one donor bead 110 and the at least one acceptor bead 120 are brought in proximity of one another. In some embodiments, the emitting portion 163 configured to emit a beam of light 162 at a specific wavelength onto the at least one donor bead 110. In some embodiments, the at least one donor bead 110 becomes excited at the specific wavelength, which results in a light emission by the at least one acceptor bead 120. […] In some embodiments, the ability and effectiveness of the screening molecule 150 to inhibit protein-glycan interactions is determined based on the strength of the emission 164, where inhibitors decrease the strength of the emission 164. […] In some embodiments, the user interface outputs information related to the emission 164 detected by the detecting portion 161.
At 214, the results are determined, meaning that whether or not the screening compound disrupts interactions at the protein-glycan interface is determined. In some embodiments, in the case of the screening molecule 150 being determined to disrupt interactions at the protein-glycan interface, the relative strength of the disruption may also be determined. […]

tau = molecular target: T2, tau (Homo sapiens, UniProt P10636); test: Heparin-induced tau aggregation; type: biochemical
T2 construct: recombinant full-length tau (2N4R, as 1-441); made in house; host or cells: E. coli BL21-DE3
T2 sequence (P10636 1-441 isoform P10636-8): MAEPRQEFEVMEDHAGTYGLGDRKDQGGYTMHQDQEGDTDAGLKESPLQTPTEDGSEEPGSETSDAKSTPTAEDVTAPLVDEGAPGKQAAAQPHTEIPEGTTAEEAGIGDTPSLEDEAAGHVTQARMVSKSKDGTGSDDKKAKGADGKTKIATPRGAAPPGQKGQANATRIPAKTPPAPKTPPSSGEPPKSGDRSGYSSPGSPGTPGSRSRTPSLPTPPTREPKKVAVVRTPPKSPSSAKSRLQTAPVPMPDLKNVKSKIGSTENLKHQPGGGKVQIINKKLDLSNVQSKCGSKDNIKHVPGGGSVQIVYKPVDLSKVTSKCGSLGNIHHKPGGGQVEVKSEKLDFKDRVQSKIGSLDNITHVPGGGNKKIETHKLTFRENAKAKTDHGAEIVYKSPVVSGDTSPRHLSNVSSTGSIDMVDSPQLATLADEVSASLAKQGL
Source text: (§1) Referring to FIG. 3B, in some embodiments, the screening compound 150 comprises 9-hydroxy-2-(2-piperidinylethyl) ellipticinium acetate or 6H-Pyrido [4, 9-hydroxy-5,11-dimethyl-2-[2-(1-piperidinyl)ethyl]-, acetate (A9) 300. […] A9 300 may comprise a chemical formula of C24H28N3O·C2H3O2 and a molecular weight of 434.0 g/mol. Additional analysis of A9 300 was done by performing a cell uptake assay utilizing H4 neuroglioma cells. […] In some embodiments, A9 300 is effective to disrupt tau-heparin interaction when present in a higher concentration than the concentration of tau. In some embodiments, A9 300 is effective when present in about a 100-fold molar excess relative to the tau-heparin complex.

[2] = test system: tau uptake in H4 neuroglioma cells; test: Cell uptake assay utilizing H4 neuroglioma cells; type: cell-based
Source text: as §1

[3] = molecular target: T3, tau-HS interaction (heparin) (Homo sapiens, UniProt P10636); test: NMR probing of the tau-A9 interface; type: binding
T3 construct: recombinant full-length tau (2N4R, as 1-441); made in house; host or cells: E. coli BL21-DE3
T3 sequence (P10636 1-441 isoform P10636-8): as above

T1 sequence (P10636 1-441 isoform P10636-8): as above

CC(=O)[O-].Cc1c2cc[n+](CCN3CCCCC3)cc2c(C)c2c1[nH]c1ccc(O)cc12 [A9, 9-hydroxy-2-(2-piperidinylethyl) ellipticinium acetate]
detected fluorescent signal in screen of NCI diversity Set VI ([1]; 0.1 μM His-tau, 0.1 μM biotinylated heparin, 1 h room temperature, excitation 680 nm, emission 620 nm, lower signal = stronger inhibition): lowest detected fluorescent signal
protein-glycan inhibition, dose-dependent follow-up, ranking among the six hits ([1]; varying compound concentrations): greatest protein-glycan inhibition
inhibition of heparin-induced tau aggregation (tau): inhibit heparin-induced tau aggregation in a dose-dependent manner
inhibition of tau uptake [2]: inhibited tau uptake in a dose-dependent manner
mechanism of disruption of tau-HS interaction ([3]; NMR): disrupt the tau-HS interaction by occupying the glycan
region of compound that binds heparin ([3]; further analysis): aromatic region binds to heparin instead of its aliphatic carbons
